Laboratory results taken from US10407467B2, “Polymyxin derivatives and their use in combination therapy together with different antibiotics” (priority 2013, dated 2019).
Structures can show the parent of a compound that is named as a salt. Bridge positions count the residues as written; N and C are the ends. Square brackets hold non-standard residues; d marks the D form. Peptide text beside a SMILES is read from it. * marks the point of attachment. ξ: configuration not given here. ξHexahydromandeloyl = O=C(C(O)C1CCCCC1)*; ξβ3hGly(cHex) = NC(CC(=O)*)C1CCCCC1; Thr(3ξ) = CC(O)[C@H](N)C(=O)O; Dab = NCC[C@H](N)C(=O)O; Dap = NC[C@H](N)C(=O)O; Inp = O=C(O)C1CCNCC1

Assays:
Type in all cases: cell-based
[1] = system: Acinetobacter baumannii; assay: MIC, compound in combination with a second agent (broth microdilution); settings: 1:1 (wt:wt) combination with Rifampicin, MIC = total drug concentration; for MIC A. baumannii CCUG57249: strain CCUG57249; for MIC A. baumannii NCTC 13423: strain NCTC 13423; for MIC A. baumannii NCTC 13424: strain NCTC 13424; for MIC A. baumannii ATCC BAA-747: strain ATCC BAA-747
In short: (§1)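 Broth microdilution with inoculum from 18-24 h Mueller-Hinton agar colonies adjusted to 0.5 McFarland, up to four strains per species. Compound combined 1:1 w/w with second agent (e.g. rifampicin), mass as salt form; MIC is total drug concentration. Duplicates, lower value reported if within 2-fold; modal value for repeat tests.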

[2] = system: Pseudomonas aeruginosa; assay: as above; settings: 1:1 (wt:wt) combination with Rifampicin, MIC = total drug concentration; for MIC P. aeruginosa ATCC 27853: strain ATCC 27853; for MIC P. aeruginosa ATCC CRM-9027: strain ATCC CRM-9027; for MIC P. aeruginosa ATCC-47: strain ATCC-47; for MIC P. aeruginosa CCUG 59626: strain CCUG 59626
In short: as §1

[3] = system: Escherichia coli; assay: as above; settings: 1:1 (wt:wt) combination with Rifampicin, MIC = total drug concentration; for MIC E. coli ATCC25922: strain ATCC25922; for MIC E. coli NCTC9001: strain NCTC9001
In short: as §1

[4] = system: Klebsiella pneumoniae; assay: as above; settings: 1:1 (wt:wt) combination with Rifampicin, MIC = total drug concentration; for MIC K. pneumoniae ATCC 4352: strain ATCC 4352; for MIC K. pneumoniae ATCC-BAA-2146: strain ATCC-BAA-2146; for MIC K. pneumoniae CCUG-59348: strain CCUG-59348
In short: as §1

[5] = system: Acinetobacter baumannii; assay: MIC, sole activity (no second agent); settings: in the absence of Rifampicin; for MIC A. baumannii ATCC13424: strain ATCC13424; for MIC A. baumannii ATCCBAA-747: strain ATCCBAA-747; for MIC A. baumannii CCUG57249: strain CCUG 57249; for MIC A. baumannii NCTC 13423: strain NCTC13423
In short: (§2)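 Compound tested without a second agent in cation-adjusted MHB, up to four strains per species, inoculum at 0.5 McFarland from colonies grown 18-24 h on Mueller-Hinton agar. Run in duplicate, invalid beyond 2-fold disagreement, lower duplicate or modal repeat value given, expressed relative to Polymyxin B.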

[6] = system: Pseudomonas aeruginosa; assay: MIC, sole activity (no second agent); settings: in the absence of Rifampicin; for MIC P. aeruginosa ATCC 27853: strain ATCC27853; for MIC P. aeruginosa ATCC-47: strain ATCC-47; for MIC P. aeruginosa ATCCCRM-9027: strain ATCCCRM-9027; for MIC P. aeruginosa CCUG 59626: strain CCUG 59626
In short: as §2

[7] = system: Escherichia coli; assay: MIC, sole activity (no second agent); settings: in the absence of Rifampicin; for MIC E. coli NCTC9001: strain NCTC9001; for MIC E. coli ATCC25922: strain ATCC25922
In short: as §2

[8] = system: Klebsiella pneumoniae; assay: MIC, sole activity (no second agent); settings: in the absence of Rifampicin; for MIC K. pneumoniae ATCC 4352: strain ATCC 4352; for MIC K. pneumoniae ATCC-BAA2146: strain ATCC-BAA2146; for MIC K. pneumoniae CCUG-59348: strain CCUG-59348
In short: as §2

Compound	MIC A. baumannii CCUG57249 [1]	MIC A. baumannii NCTC 13423 [1]	MIC A. baumannii NCTC 13424 [1]	MIC P. aeruginosa ATCC 27853 [2]	MIC P. aeruginosa ATCC CRM-9027 [2]	MIC P. aeruginosa ATCC-47 [2]	MIC P. aeruginosa CCUG 59626 [2]	MIC E. coli ATCC25922 [3]	MIC K. pneumoniae ATCC 4352 [4]	MIC K. pneumoniae ATCC-BAA-2146 [4]	MIC K. pneumoniae CCUG-59348 [4]	MIC A. baumannii ATCCBAA-747 [5]	MIC A. baumannii NCTC 13423 [5]	MIC P. aeruginosa ATCC-47 [6]	MIC P. aeruginosa ATCCCRM-9027 [6]	MIC P. aeruginosa CCUG 59626 [6]	MIC E. coli NCTC9001 [7]	MIC K. pneumoniae ATCC 4352 [8]	MIC K. pneumoniae ATCC-BAA2146 [8]	MIC K. pneumoniae CCUG-59348 [8]	further results
CC(C)C[C@@H]1NC(=O)[C@@H](Cc2ccccc2)NC(=O)[C@H](CCN)NC(=O)[C@@H](NC(=O)[C@H](CN)NC(=O)[C@@H](NC(=O)C(O)C2CCCCC2)C(C)O)CCNC(=O)[C@H](C(C)O)NC(=O)[C@H](CCN)NC(=O)[C@H](CCN)NC1=O (stereo partly drawn) [Example 45, [2-cyclohexyl-2-hydroxyethanoyl]-L-Thr-L-Dap-polymyxin B heptapeptide, TFA salt] (ξHexahydromandeloyl-[Thr(3ξ)][Dap][Dab][Dab][dF]L[Dab][Dab][Thr(3ξ)]; lactam 3-C)	0.25 micrograms/mL	0.125 micrograms/mL	0.125 micrograms/mL	0.5 micrograms/mL	0.5 micrograms/mL	0.25 micrograms/mL	0.25 micrograms/mL	≤0.06 micrograms/mL	0.25 micrograms/mL	0.5 micrograms/mL	1 micrograms/mL	2 micrograms/mL	1 micrograms/mL	1 micrograms/mL	0.125 micrograms/mL	0.125 micrograms/mL	16 micrograms/mL	0.25 micrograms/mL	2 micrograms/mL	32 micrograms/mL	MIC A. baumannii ATCC13424 [5]: 1 micrograms/mL; MIC A. baumannii CCUG57249 [5]: 2 micrograms/mL; MIC P. aeruginosa ATCC 27853 [6]: 0.25 micrograms/mL
CC(C)C[C@@H]1NC(=O)[C@@H](Cc2ccccc2)NC(=O)[C@H](CCN)NC(=O)[C@@H](NC(=O)[C@@H](CO)NC(=O)[C@@H](NC(=O)CC(N)C2CCCCC2)[C@@H](C)O)CCNC(=O)[C@H](C(C)O)NC(=O)[C@H](CCN)NC(=O)[C@H](CCN)NC1=O (stereo partly drawn) [Example 48, [3-Amino-3-cyclohexyl-propionyl]-L-Thr-D-Ser-polymyxin B heptapeptide, TFA salt] ({ξβ3hGly(cHex)}-T[dS][Dab][Dab][dF]L[Dab][Dab][Thr(3ξ)]; lactam 3-C)	≤0.06 micrograms/mL	0.125 micrograms/mL	≤0.06 micrograms/mL	1 micrograms/mL	1 micrograms/mL	2 micrograms/mL	1 micrograms/mL	0.25 micrograms/mL	0.25 micrograms/mL	2 micrograms/mL	2 micrograms/mL	0.25 micrograms/mL	0.25 micrograms/mL	8 micrograms/mL	0.5 micrograms/mL	1 micrograms/mL	>32 micrograms/mL	0.5 micrograms/mL	4 micrograms/mL	>32 micrograms/mL	MIC A. baumannii ATCC BAA-747 [1]: 0.125 micrograms/mL; MIC E. coli NCTC9001 [3]: 0.5 micrograms/mL; MIC P. aeruginosa ATCC 27853 [6]: 4 micrograms/mL
CC(C)C[C@H]1NC(=O)[C@H](CCN)NC(=O)[C@@H](NC(=O)[C@H](CCN)NC(=O)[C@@H](NC(=O)CC(N)C2CCCCC2)C(C)O)CCNC(=O)[C@H](C(C)O)NC(=O)[C@H](CCN)NC(=O)[C@H](CCN)NC(=O)[C@H](C(C)O)NC1=O (stereo partly drawn) [Example 50, 3-Amino-3-cyclohexyl propanoyl-Thr-Dab-(cyclo)Dab*-Dab-DLeu-Thr-Dab-Dab-Thr*] ({ξβ3hGly(cHex)}-[Thr(3ξ)][Dab][Dab][Dab][dL][Thr(3ξ)][Dab][Dab][Thr(3ξ)]; lactam 3-C)	0.125 micrograms/mL	0.125 micrograms/mL	0.125 micrograms/mL	0.125 micrograms/mL	0.125 micrograms/mL	0.25 micrograms/mL	0.25 micrograms/mL	≤0.06 micrograms/mL	≤0.06 micrograms/mL	0.25 micrograms/mL	8 micrograms/mL	4 micrograms/mL	2 micrograms/mL	32 micrograms/mL	0.5 micrograms/mL	2 micrograms/mL	>32 micrograms/mL	4 micrograms/mL	16 micrograms/mL	>32 micrograms/mL	MIC A. baumannii ATCC BAA-747 [1]: 0.125 micrograms/mL; MIC E. coli NCTC9001 [3]: 0.125 micrograms/mL; MIC A. baumannii ATCC13424 [5]: 4 micrograms/mL; MIC A. baumannii CCUG57249 [5]: 4 micrograms/mL; MIC P. aeruginosa ATCC 27853 [6]: 32 micrograms/mL; MIC E. coli ATCC25922 [7]: >32 micrograms/mL
CC(C)C[C@@H]1NC(=O)[C@@H](Cc2ccccc2)NC(=O)[C@H](CCN)NC(=O)[C@@H](NC(=O)[C@H](CCCCN)NC(=O)[C@@H](NC(=O)C2CCNCC2)C(C)O)CCNC(=O)[C@H](C(C)O)NC(=O)[C@H](CCN)NC(=O)[C@H](CCN)NC1=O (stereo partly drawn) [Example 51, Piperidin-4-yl carbonyl-L-Thr-L-Lys-polymyxin B heptapeptide, TFA salt] (H-[Inp][Thr(3ξ)]K[Dab][Dab][dF]L[Dab][Dab][Thr(3ξ)]; lactam 4-C)	≤0.06 micrograms/mL	0.125 micrograms/mL	–	0.25 micrograms/mL	0.25 micrograms/mL	0.5 micrograms/mL	0.5 micrograms/mL	0.125 micrograms/mL	0.125 micrograms/mL	1 micrograms/mL	4 micrograms/mL	4 micrograms/mL	8 micrograms/mL	32 micrograms/mL	0.125 micrograms/mL	0.25 micrograms/mL	>32 micrograms/mL	2 micrograms/mL	>32 micrograms/mL	>32 micrograms/mL	MIC A. baumannii ATCC BAA-747 [1]: ≤0.06 micrograms/mL; MIC E. coli NCTC9001 [3]: 0.5 micrograms/mL; MIC A. baumannii ATCC13424 [5]: 4 micrograms/mL; MIC A. baumannii CCUG57249 [5]: 4 micrograms/mL; MIC E. coli ATCC25922 [7]: >32 micrograms/mL
